Converted amounts (≈) assume the structure as drawn.
What was measured:
in vivo = conditions: dog, iv, 5 mg/kg; for Morbidity / Mortality: 24 h
Method: For the pharmacokinetic study in Beagle dogs, a total of 3 male and 3 female dogs were selected. They were acclimatized for 5 days before dosing and at the start of dosing, dogs were between 36 and 37 months old. […] Sterile water was also selected as a vehicle for injection of compound 5. […] A constant dose volume of 1 mL/kg body weight was administered, adjusted according to the most recently recorded body weight of each dog. A single dose of 5 mg/kg b. wt. was selected in the case of dogs.
Blood collection, plasma separation, and storage procedures were conducted following the same procedure as described for rats. Blood samples (600 µL) were collected from the cephalic vein of the forelimb for each dog. However, the concentration of compound 5 was determined using LC-MS/MS analysis. A column with identical characteristics to the one used in rats was employed, with a flow rate of 0.65 mL/min, a binary elution mode, and a run time of 6.0 min. Plasma samples were analyzed to determine the concentration of the active ingredient, and subsequently, the pharmacokinetic parameters were calculated. After a washout period of 7 days, dogs were returned back to stock.

[1] = test system: whole blood clot formation; experiment: Whole blood coagulation assay (clot formation, no exogenous tPA); design: species or system human; conditions: 40 µM, 37 °C, fibrinolysis not triggered
Method: Blood was obtained by venipuncture from healthy donors after they signed an informed consent form. Blood was transferred into vacuum non-anticoagulant Vacutainer® tubes (BD, Franklin Lakes, NJ, USA). Blood samples were immediately used for the assay after extraction.
Prior to blood addition, 20 µL of the evaluated compounds was added to glass tubes, in a final concentration of 40 µM. As a control clot, 20 µL of Tris HCl buffer with no compound was used. Next, 800 µL of blood was transferred to each tube followed by casual shaking to ensure proper mixing. Tubes were incubated at 37 °C for 30 min to allow clot formation and posterior lysis. Blood clotting and lysis were visually monitored and photographs were taken after 30 min.

[2] = Pharmacokinetic study in Wistar rats; type: in vivo; conditions: for Mortality: PK2 2.5 mg/kg iv, 9 rats; for AUC / Cmax / Tmax / Vd / clearance / half-life: iv
Method: A pharmacokinetic study was performed for compound 5 in Wistar rats and Beagle dogs. For rats, a total of 35 male and 35 female rats were used for the study. At initiation of the dosing, rats were 9 to 10 weeks old and the body weight variation among rats was within ±20% of the mean body weight for each sex. […] Food and filtered water were provided ad libitum. During randomization, 30 male and 30 female rats were selected for the study and randomly allocated to the 4 different groups. The remaining 5 male and 5 female rats were returned to the animal facility. Rats were observed twice daily for morbidity, mortality, and clinical signs during the whole study period. Rats were euthanized after last blood collection time point by carbon dioxide asphyxiation. Sterile water served as a vehicle to dissolve compound 5 and the resulting formulations were administered right after preparation. Dose formulations were administered to rats via an intravenous bolus injection through the tail vein, using a sterile needle attached to a graduated syringe. A fixed volume of 5 mL/kg body weight was administered. Individual doses were adjusted based on the most recent recorded body weight of each rat. Four dose levels were selected: vehicle control (PK1), 2.5 mg/kg (PK2), 5 mg/kg (PK3), and 10 mg/kg (PK4).
Pharmacokinetic assessment of compound 5 was conducted on the day of dosing at multiple time points: 0 h (pre-dose), 5 min, 15 min, 0.5 h, 1 h, 2 h, 4 h, 6 h, 10 h, and 24 h post-dosing for PK2, PK3, and PK4 rats. At each time point, samples were only obtained from a subset of 3 rats. For the PK1 group, samples were collected at 0 h and at 24 h post-dosing. Blood samples (400 µL) were collected into heparin sodium tubes from the retro-orbital plexus under very light isoflurane anesthesia. Samples were inverted 4 to 5 times and placed on ice and then centrifuged at 3500 rpm for 15 min at 8 °C for plasma extraction. Plasma was transferred to Eppendorf tubes and stored at −70 ± 10 °C until assayed. The concentration of compound 5 was analyzed in plasma using High-Performance Liquid Chromatography. […] The mobile phase consisted of acetonitrile (A) and 2 mM ammonium Formate in Mili-Q water (B) with an isocratic elution mode. Pharmacokinetic analysis of the concentration of compound 5 in plasma was performed using the non-compartmental model of the WinNonlin® software version 8.1 at JRF. The group mean values of plasma concentration were analyzed to obtain different pharmacokinetics parameters, including Cmax (maximum peak concentration), Tmax (time of maximum peak concentration), AUC (area under the concentration–time curve, Cl (clearance), Vd (volume of distribution), Kel (elimination rate constant), and T1/2 (terminal half-life).

[3] = Maximum solubility in plasmin assay; type: physicochemical; conditions: Tris HCl buffer (plasmin activity assay solution), pH 7.5
[4] = female, Wistar, rat, in vivo, 2.5 mg/kg
[5] = female, Wistar, rat, in vivo, 5 mg/kg
[6] = female, Wistar, rat, in vivo, 10 mg/kg
[7] = male, Wistar, rat, in vivo, 2.5 mg/kg
[8] = male, Wistar, rat, in vivo, 5 mg/kg
[9] = male, Wistar, rat, in vivo, 10 mg/kg

In the case of `O=c1[nH]nc(-c2cn(C3CCNCC3)nn2)o1` [compound 5], the “Clinical signs observed: N of dogs with Mild vomiting” value (in vivo; female, Beagle) is reported as 1, the Cmax (in vivo; female, Beagle) is reported as 15800 ng/mL and the Kel (in vivo; female, Beagle) is reported as 0.23 h‐1. The Tmax (in vivo; female, Beagle) was 4.8 min, the half-life (in vivo; female, Beagle) was 182 min and the Morbidity (in vivo; female, Beagle) was 0 number of dogs. The Mortality (in vivo; female, Beagle) was 0 number of dogs, the “Clinical signs observed: N of dogs with Mild vomiting” value (in vivo; male, Beagle) was 1 and the Cmax (in vivo; male, Beagle) was 14000 ng/mL. The Kel (in vivo; male, Beagle) was 0.24 h‐1, the Tmax (in vivo; male, Beagle) was 4.8 min and the half-life (in vivo; male, Beagle) was 173 min. For the same molecule, the Morbidity (in vivo; male, beagle) was 0 number of dogs, the Mortality (in vivo; male, beagle) was 0 number of dogs and the “effect on clot formation” value [1] was “do not have any effect”. The Mortality ([2]; female) was 0 number of rats, the Mortality ([2]; male) was 0 number of rats and the elimination halftime ([2]; both, Wistar (rat), Beagle (dog), rat, in vivo) was 2 to 3 h. It also gave an AUC [2, 4] of 3630 ng·h/mL, a Cmax [2, 4] of 8660 ng/mL and a Tmax [2, 4] of 4.8 min. The Vd [2, 4] was 1.91 L/kg, the clearance [2, 4] was 11.5 mL/min/kg and the half-life [2, 4] was 115 min. For the same molecule, the AUC [2, 5] was 7040 ng·h/mL, the Tmax [2, 5] was 4.8 min and the Vd [2, 5] was 2.03 L/kg. For the same molecule, the clearance [2, 5] was 11.8 mL/min/kg, the half-life [2, 5] was 119 min and the AUC [2, 6] was 13600 ng·h/mL. For the same molecule, the Tmax [2, 6] was 4.8 min, the Vd [2, 6] was 2.37 L/kg and the clearance [2, 6] was 12.2 mL/min/kg. For the same molecule, the half-life [2, 6] was 134 min, the AUC [2, 7] was 3430 ng·h/mL and the Cmax [2, 7] was 8280 ng/mL. For the same molecule, the Tmax [2, 7] was 4.8 min, the Vd [2, 7] was 2.52 L/kg and the clearance [2, 7] was 12.2 mL/min/kg. For the same molecule, the half-life [2, 7] was 145 min, the AUC [2, 8] was 6530 ng·h/mL and the Cmax [2, 8] was 15100 ng/mL. The Tmax [2, 8] was 4.8 min, the Vd [2, 8] was 6.01 L/kg and the clearance [2, 8] was 12.7 mL/min/kg. The half-life [2, 8] was 327 min, the AUC [2, 9] was 12200 ng·h/mL and the Cmax [2, 9] was 26300 ng/mL. The Tmax [2, 9] was 4.8 min, the Vd [2, 9] was 6.65 L/kg and the clearance [2, 9] was 13.7 mL/min/kg. For the same molecule, the half-life [2, 9] was 337 min, the Cmax ([2]; rat, in vivo, 5 mg/kg) was 16,634 and the Cmax ([2]; rat, in vivo, 10 mg/kg) was 30,839. For the same molecule, the solubility [3] was 20 mM (≈ 4720 µg/mL).

Source: PMC11241262, “Unravelling the Antifibrinolytic Mechanism of Action of the 1,2,3-Triazole Derivatives” (International Journal of Molecular Sciences, 2024)
